Experimental findings from PubChem BioAssay (NCI) are described below.

Test systems include SK-MEL-2 melanoma; OVCAR-4 ovarian; DLD-1 colon; 786-0 renal; KM20L2 colon; SR leukemia; KM12 colon; OVCAR-8 ovarian; BT-549 breast; NCI/ADR-RES ovarian.
What all share (test): NCI anticancer screen, dose series, 48 h

Values joined by “and” are separate entries in the source; they are usually repeats but may differ in a detail not shown here. Equal values may be shown once.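 Following 48 hours of exposure in 96-well plates, responses at five concentrations were used to interpolate endpoints linearly. Abbreviation: GI50, concentration required for 50% inhibition of growth. The concentration for full growth arrest is given as TGI.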

`O=c1cc2n(c(=O)[nH]1)C1OC(C(O)C1O)[C@H]2CCO` (stereo partly drawn): the TGI in the experiment on SK-MEL-2 melanoma, in the experiment on OVCAR-4 ovarian, in the experiment with DLD-1 colon, in the experiment on 786-0 renal, in the experiment with KM20L2 colon and in the experiment with SR leukemia was more than 100 µM throughout. Besides, the TGI with KM12 colon and in the experiment on OVCAR-8 ovarian was more than 100 µM in each case.
On to `COCC1C(=O)c2cc3c(cc2C12C=CC1(C=C2)OCCO1)OCO3` (stereo not drawn), for which the TGI stood at 24.5 µM in the experiment with SK-MEL-2 melanoma; 27.4 µM in the experiment with OVCAR-4 ovarian; 6.5 µM with DLD-1 colon; 4.54 µM with 786-0 renal; 22.7 µM with KM20L2 colon; 6.8 µM in the experiment on SR leukemia. Moreover, the TGI in the experiment on KM12 colon worked out at 18.2 µM; in the experiment with OVCAR-8 ovarian, 13.1 µM.
Turning to `C[N+](C)(C)CCC(=O)N1C/C(=C\c2ccccc2)C(=O)/C(=C/c2ccccc2)C1`, the TGI turned out to be 30.1 µM in the experiment on SK-MEL-2 melanoma; 9.79 µM in the experiment with OVCAR-4 ovarian; 5.78 µM with DLD-1 colon; 5.46 µM in the experiment on 786-0 renal; 22 µM in the experiment on KM20L2 colon; 4.95 µM in the experiment on BT-549 breast. For the same compound, the TGI in the experiment on KM12 colon was determined as 3.11 µM; in the experiment on OVCAR-8 ovarian, 8.44 µM; in the experiment on NCI/ADR-RES ovarian, 3.3 µM.
`Nc1nc(=O)n(C2CC(O)C(O)C(CO)O2)cc1F` (stereo not drawn): the TGI in the experiment with SK-MEL-2 melanoma, in the experiment with OVCAR-4 ovarian, in the experiment with DLD-1 colon, in the experiment on 786-0 renal, with KM20L2 colon and in the experiment on OVCAR-8 ovarian was more than 100 µM throughout.
`COC(=O)CCC(=O)CC(=O)C(=O)Nc1ccc(F)cc1`: the TGI with SK-MEL-2 melanoma, in the experiment with OVCAR-4 ovarian, with DLD-1 colon, in the experiment with 786-0 renal, in the experiment on KM20L2 colon and with KM12 colon was more than 100 µM throughout. Besides, the TGI in the experiment with OVCAR-8 ovarian is more than 100 µM.
With `O=C(Nc1ccc(Cl)c(Cl)c1)C(=O)Nn1c(=S)[nH]c2ccccc2c1=O`, the TGI in the experiment with SK-MEL-2 melanoma, with OVCAR-4 ovarian, in the experiment with DLD-1 colon, in the experiment with 786-0 renal, in the experiment with KM20L2 colon and with SR leukemia was more than 100 µM each time. For the same compound, the TGI in the experiment on KM12 colon and with OVCAR-8 ovarian was more than 100 µM in each case.
With `O=C(CC1(O)C(=O)Nc2c(Cl)cccc21)c1ccccc1` (stereo not drawn), the TGI in the experiment on SK-MEL-2 melanoma, in the experiment on OVCAR-4 ovarian, in the experiment on DLD-1 colon, in the experiment with 786-0 renal, in the experiment on KM20L2 colon and with KM12 colon was more than 100 µM each time. This compound also gave a TGI in the experiment on OVCAR-8 ovarian of more than 100 µM.
As to `Cc1cc2cc(Cl)ccc2nc1C(=O)c1ccccc1`, the TGI in the experiment on SK-MEL-2 melanoma, in the experiment on OVCAR-4 ovarian, in the experiment on DLD-1 colon, in the experiment with 786-0 renal, in the experiment on KM20L2 colon and in the experiment with SR leukemia was more than 100 µM throughout. Also, the TGI with KM12 colon and in the experiment with OVCAR-8 ovarian was more than 100 µM throughout.
As to `COc1ccc(CN2C(=O)C(Cc3cc(OC)c(OC)c(C)c3OC)N(C(=O)OC(C)C)C(=O)/C2=C/c2cc(OC)c(OC)c(C)c2OC)cc1` (stereo not drawn), the TGI in the experiment on SK-MEL-2 melanoma was more than 100 µM; in the experiment with OVCAR-4 ovarian, more than 100 µM; in the experiment on DLD-1 colon it was more than 100 µM; with 786-0 renal, more than 100 µM; with KM20L2 colon, more than 100 µM; with SR leukemia it was 89.8 µM. Besides, the TGI in the experiment with KM12 colon and with OVCAR-8 ovarian was more than 100 µM each time.
As for `Cc1cc2c(cc1C)N1Cc3c(ccc(C)c3C)N(C2)C1` (tested in a mixture with another compound), the TGI with OVCAR-4 ovarian, with DLD-1 colon, in the experiment on 786-0 renal, in the experiment on KM20L2 colon, in the experiment with KM12 colon and with OVCAR-8 ovarian was more than 100 µM in each case.
Regarding `O=c1oc2c3ccc4ccccc4c3n(CCN3CCOCC3)c2c2ccccc12`, the TGI was more than 100 µM in the experiment with OVCAR-4 ovarian; more than 100 µM in the experiment with DLD-1 colon; more than 100 µM in the experiment on 786-0 renal; more than 100 µM in the experiment with KM20L2 colon; 58.3 µM in the experiment with SR leukemia; more than 100 µM in the experiment on KM12 colon. In addition, in the experiment with OVCAR-8 ovarian, the TGI is more than 100 µM.
Regarding `COc1ccc(C(=O)C(c2ccc(OC)cc2)C2C(=O)Oc3ccccc32)cc1` (stereo not drawn), the GI50 in the experiment on SK-MEL-2 melanoma, with OVCAR-4 ovarian, with DLD-1 colon, in the experiment with 786-0 renal, in the experiment with KM20L2 colon and in the experiment on SR leukemia was more than 100 µM throughout. The GI50 in the experiment on KM12 colon and with OVCAR-8 ovarian was more than 100 µM each time. Moreover, the TGI with SK-MEL-2 melanoma, in the experiment on OVCAR-4 ovarian, in the experiment on DLD-1 colon, in the experiment with 786-0 renal, in the experiment on KM20L2 colon and with SR leukemia was more than 100 µM throughout. Also, the TGI with KM12 colon and with OVCAR-8 ovarian was more than 100 µM in each case.
Turning to `COc1cc(C2c3cc4c(cc3[C@H](NC(=O)c3cccs3)C3COC(=O)[C@H]23)OCO4)cc(OC)c1OC` (stereo partly drawn), the TGI in the experiment with SK-MEL-2 melanoma was more than 100 µM; in the experiment on DLD-1 colon it was 36.8 µM; in the experiment on 786-0 renal, 21.7 µM; in the experiment with KM20L2 colon, 0.0396 µM; in the experiment on BT-549 breast, 16.4 µM; with SR leukemia, 17.7 µM. For the same compound, the TGI in the experiment on OVCAR-8 ovarian worked out at 94.4 µM; in the experiment with NCI/ADR-RES ovarian, 0.459 µM.
On to `O=C1OC(c2ccccc2)C2CC3CC4(CCC3CN12)OCCO4` (stereo not drawn), for which the TGI with SK-MEL-2 melanoma, in the experiment with OVCAR-4 ovarian, with 786-0 renal, in the experiment with KM20L2 colon, in the experiment on SR leukemia and in the experiment with KM12 colon was more than 100 µM in each case. The TGI in the experiment on OVCAR-8 ovarian was more than 100 µM.
For the compound `COc1ccc2nc3cc(Cl)ccc3c(NCCC(=O)OCC(O)C(O)C(O[C@H](C)C(=O)NC(C)C(=O)NC(CCC(N)=O)C(=O)OCc3ccccc3)C(C=O)NC(C)=O)c2c1` (stereo partly drawn), the TGI with SK-MEL-2 melanoma was 41.8 µM; in the experiment on OVCAR-4 ovarian, 34.3 µM; in the experiment with DLD-1 colon it was 33.6 µM; in the experiment on 786-0 renal, 31.9 µM; with KM20L2 colon, 32.7 µM; with SR leukemia, 23.6 µM. Also, the TGI in the experiment on KM12 colon worked out at 41.7 µM; in the experiment on OVCAR-8 ovarian, 30.5 µM.
Consider `NC(=O)c1nnn(Cc2cc(Cl)c(C(=O)c3ccc(Cl)cc3)c(Cl)c2)c1N`, for which the GI50 was more than 9.09 µM in the experiment with SK-MEL-2 melanoma; more than 9.09 µM with OVCAR-4 ovarian; 12.7 µM in the experiment with DLD-1 colon; more than 9.09 µM with 786-0 renal; 2.79 µM in the experiment with KM20L2 colon; 21.7 µM in the experiment with SR leukemia. In addition, the GI50 in the experiment on KM12 colon and in the experiment on OVCAR-8 ovarian was more than 9.09 µM each time. In addition, the TGI with SK-MEL-2 melanoma is more than 44 µM; in the experiment on OVCAR-4 ovarian, > 9.09 µM and 39.1 µM; with DLD-1 colon it was > 9.09 µM and 30.8 µM; in the experiment on 786-0 renal, > 9.09 µM and 43 µM; with KM20L2 colon it was > 9.09 µM and 17.4 µM; in the experiment on BT-549 breast, more than 52.4 µM. Moreover, the TGI in the experiment with SR leukemia was more than 100 µM; in the experiment with KM12 colon, > 9.09 µM and 35 µM; with OVCAR-8 ovarian, > 9.09 µM and 40.8 µM; in the experiment with NCI/ADR-RES ovarian, more than 66.4 µM.
In the case of `COc1ccc(C(=O)/C(=N/Nc2ccccc2)c2ccc(OC)cc2)cc1`, the TGI with SK-MEL-2 melanoma was more than 100 µM; in the experiment with OVCAR-4 ovarian, more than 100 µM; in the experiment with DLD-1 colon, more than 100 µM; with 786-0 renal, more than 100 µM; in the experiment on KM20L2 colon, 51.5 µM; in the experiment on KM12 colon it was more than 100 µM. This compound yielded a TGI with OVCAR-8 ovarian of more than 100 µM.
Consider `Cc1cc(C)nc(NS(=O)(=O)c2ccc(NC(=O)c3cccc4c(Nc5ccc(S(=O)(=O)Nc6nc(C)cc(C)n6)cc5)c5ccccc5nc34)cc2)n1`, for which the TGI in the experiment with SK-MEL-2 melanoma came out at 70.4 µM; in the experiment with OVCAR-4 ovarian, 64.1 µM; with DLD-1 colon it was 54.2 µM; in the experiment with 786-0 renal, 46.8 µM; in the experiment on KM20L2 colon, 42.9 µM; with KM12 colon it was 44.3 µM. In addition, the TGI in the experiment with OVCAR-8 ovarian came to 68.1 µM.
As to `CN(C)c1ccc(/C=C/C(=O)c2ccccc2)cc1Br`, the TGI in the experiment on SK-MEL-2 melanoma came to 44.5 µM; in the experiment with OVCAR-4 ovarian, 34.5 µM; with DLD-1 colon, 35.6 µM; in the experiment with 786-0 renal, 31.8 µM; in the experiment on KM20L2 colon, 57.6 µM; in the experiment on KM12 colon it was 33.3 µM. The TGI with OVCAR-8 ovarian was 57.1 µM.
In the case of `COc1c(OC(C)=O)c(OC(C)=O)cc2c1-c1ccc(OC)c(=O)cc1C(NC(C)=O)CC2` (stereo not drawn), the TGI in the experiment with SK-MEL-2 melanoma was 9.38 µM; in the experiment with OVCAR-4 ovarian it was more than 100 µM; in the experiment with DLD-1 colon, more than 100 µM; in the experiment with 786-0 renal it was more than 100 µM; with KM20L2 colon it was 0.0795 µM; with BT-549 breast, more than 100 µM. For the same compound, the TGI in the experiment with SR leukemia was more than 100 µM; in the experiment with KM12 colon it was 0.555 µM; in the experiment with OVCAR-8 ovarian, more than 70.1 µM; in the experiment on NCI/ADR-RES ovarian, 74.1 µM.
Regarding `CCOC(=O)NC(=O)c1cn(CCCCCOC(=O)NCCCCCCNC(=O)OCCCCCn2cc(C(=O)NC(=O)OCC)c(=O)[nH]c2=O)c(=O)[nH]c1=O`, the TGI in the experiment on SK-MEL-2 melanoma, in the experiment on OVCAR-4 ovarian, in the experiment on DLD-1 colon, in the experiment with 786-0 renal, in the experiment on KM20L2 colon and with KM12 colon was more than 100 µM each time. Besides, the TGI in the experiment on OVCAR-8 ovarian was more than 100 µM.
As to `CN(C)c1ccccc1CC(c1c[nH]c2ccccc12)c1c[nH]c2ccccc12`, the TGI was 29.3 µM with SK-MEL-2 melanoma; 21.1 µM in the experiment on OVCAR-4 ovarian; 30.4 µM in the experiment with DLD-1 colon; 25.4 µM with 786-0 renal; 22.6 µM in the experiment with KM20L2 colon; 21.6 µM in the experiment on SR leukemia. Besides, the TGI in the experiment with KM12 colon was found to be 14.5 µM; in the experiment with OVCAR-8 ovarian it was 26.1 µM.
With `N#Cc1ccc(/C=N\N2C(=O)c3ccccc3C2=O)cc1`, the TGI in the experiment with SK-MEL-2 melanoma, in the experiment on OVCAR-4 ovarian, with DLD-1 colon, in the experiment with 786-0 renal, in the experiment with KM20L2 colon and in the experiment on SR leukemia was more than 100 µM in each case. The TGI with KM12 colon and in the experiment on OVCAR-8 ovarian was more than 100 µM throughout.
Regarding `O=C1C(c2ccc([N+](=O)[O-])cc2)=[N+]([O-])c2ccccc21`, the TGI in the experiment on SK-MEL-2 melanoma was more than 100 µM; with OVCAR-4 ovarian it was 21.7 µM; in the experiment with DLD-1 colon it was more than 100 µM; in the experiment with 786-0 renal, more than 100 µM; in the experiment with SR leukemia, 62.3 µM; in the experiment with KM12 colon, more than 100 µM. Besides, the TGI in the experiment with OVCAR-8 ovarian was found to be 16.4 µM.
For `O=c1c2cc(Br)ccc2[nH]c(=S)n1-c1ccc(Br)cc1`, the TGI with SK-MEL-2 melanoma, in the experiment with OVCAR-4 ovarian, in the experiment with DLD-1 colon, in the experiment on 786-0 renal, in the experiment on KM20L2 colon and in the experiment on SR leukemia was more than 100 µM throughout. In addition, the TGI in the experiment with KM12 colon and with OVCAR-8 ovarian was more than 100 µM throughout.
